Molecules are shown by their SMILES.

Broadly, the IC50 is the concentration at which inhibition is half-maximal.

The assay is described as follows: Inhibition of calcium ionophore (A-23187)-stimulated LTB4 formation in human neutrophil assay.
As for `O=C(O)/C=N/OC(c1ccc(OCc2nc3cccnc3s2)cc1)C1CCCCC1` (stereo not given) [{Cyclohexyl-[4-(thiazolo[5,4-b]pyridin-2-ylmethoxy)-phenyl]-methoxyimino}-acetic acid], the IC50 was determined as 27 nM.

As for `C/C(=N\OC(c1cc2ccc(OCc3ccc4ccccc4n3)cc2s1)C1CCCCC1)C(=O)O` (stereo not given) [2-{Cyclohexyl-[6-(quinolin-2-ylmethoxy)-benzo[b]thiophen-2-yl]-methoxyimino}-propionic acid], the IC50 amounted to 40 nM.

For `O=C(O)/C(=N/OC(c1ccc(OCc2ccc3ccccc3n2)cc1)C1CCCCC1)c1ccccc1` (stereo not given) [{Cyclohexyl-[4-(quinolin-2-ylmethoxy)-phenyl]-methoxyimino}-phenyl-acetic acid (0.5H2O)], the IC50 amounted to 31 nM.

`C/C(=N\OC(CC1CCCCC1)c1ccc(OCc2ccc3ccccc3n2)cc1)C(=O)O` (stereo not given) [2-{2-Cyclohexyl-1-[4-(quinolin-2-ylmethoxy)-phenyl]-ethoxyimino}-propionic acid]: the IC50 worked out at 29 nM.

Consider `C/C(=N\OC(c1ccc(OCc2ccc3ccccc3n2)c(C)c1)C1CCCCC1)C(=O)O` (stereo not given) [2-{Cyclohexyl-[3-methyl-4-(quinolin-2-ylmethoxy)-phenyl]-methoxyimino}-propionic acid (0.1H2O)], for which the IC50 stood at 20 nM.

`O=C(O)/C=N/OC(CC1CCCCC1)c1ccc(OCc2ccc3ccccc3n2)cc1` (stereo not given) [{2-Cyclohexyl-1-[4-(quinolin-2-ylmethoxy)-phenyl]-ethoxyimino}-acetic acid]: the IC50 is 27 nM.

For the compound `O=C(O)/C=N/OC(c1ccc(OCc2cnc3ccccc3n2)cc1)C1CCCCC1` (stereo not given) [{Cyclohexyl-[4-(quinoxalin-2-ylmethoxy)-phenyl]-methoxyimino}-acetic acid], the IC50 came out at 25 nM.

For `O=C(O)c1ccc(/C=N/OC(c2ccc(OCc3ccc4ccccc4n3)cc2)C2CCCCC2)cc1` (stereo not given) [4-({Cyclohexyl-[4-(quinolin-2-ylmethoxy)-phenyl]-methoxyimino}-methyl)-benzoic acid], the IC50 amounted to 31 nM.

On to `O=C(O)/C=N/OC(c1ccc(OCc2nc3cc(F)ccc3s2)cc1Cl)C1CCCCC1` (stereo not given) [{[2-Chloro-4-(5-fluoro-benzothiazol-2-ylmethoxy)-phenyl]-cyclohexyl-methoxyimino}-acetic acid], for which the IC50 was 14 nM.

Consider `O=C(O)/C=N/OC(c1ccc(Oc2ccc3ccccc3n2)cc1)C1CCCCC1` (stereo not given) [{Cyclohexyl-[4-(quinolin-2-yloxy)-phenyl]-methoxyimino}-acetic acid (0.25H2O)], for which the IC50 came to 160 nM.

For `O=C(O)/C=N/OC(c1ccc(OCc2ccccn2)cc1)C1CCCCC1` (stereo not given) [{Cyclohexyl-[4-(pyridin-2-ylmethoxy)-phenyl]-methoxyimino}-acetic acid], the IC50 came to 150 nM.

For the compound `O=C(O)/C(CCc1ccccc1)=N/OC(c1ccc(OCc2ccc3ccccc3n2)cc1)C1CCCCC1` (stereo not given) [2-{Cyclohexyl-[4-(quinolin-2-ylmethoxy)-phenyl]-methoxyimino}-4-phenyl-butyric acid (0.5H2O)], the IC50 was 20 nM.

Turning to `CCCCC(CCCC)C(O/N=C/C(=O)O)c1ccc(OCc2ccc3ccccc3n2)cc1` (stereo not given) [{2-Butyl-1-[4-(quinolin-2-ylmethoxy)-phenyl]-hexyloxyimino}-acetic acid], the IC50 was determined as 10 nM.

For the compound `C=CCC(O/N=C(\C)C(=O)O)c1ccc(OCc2ccc3ccccc3n2)cc1` (stereo not given) [2-{1-[4-(Quinolin-2-ylmethoxy)-phenyl]-but-3-enyloxyimino}-propionic acid], the IC50 worked out at 142 nM.

As for `O=C(O)/C=N/OC(c1ccc(/C=C/c2ccc3ccccc3n2)cc1)C1CCCCC1` (stereo not given) [{Cyclohexyl-[4-(2-quinolin-2-yl-vinyl)-phenyl]-methoxyimino}-acetic acid (0.25H2O)], the IC50 turned out to be 91 nM.

`C/C(=N\OC(c1cc2cc(OCc3ccc4ccccc4n3)ccc2s1)C1CCCCC1)C(=O)O` (stereo not given) [2-{Cyclohexyl-[5-(quinolin-2-ylmethoxy)-benzo[b]thiophen-2-yl]-methoxyimino}-propionic acid]: the half-maximal inhibitory concentration (IC50) turned out to be 33 nM.

On to `C/C(=N\OC(c1ccc(OCc2ccc3ccccc3n2)cc1)c1cccs1)C(=O)O` (stereo not given) [2-{[4-(Quinolin-2-ylmethoxy)-phenyl]-thiophen-2-yl-methoxyimino}-propionic acid], for which the IC50 came to 33 nM.

Take `C/C(=N\OC(c1ccc(OCc2ccc3ccccc3n2)cc1SC1CCCCC1)C1CCCCC1)C(=O)O` (stereo not given) [2-{Cyclohexyl-[2-cyclohexylsulfanyl-4-(quinolin-2-ylmethoxy)-phenyl]-methoxyimino}-propionic acid]: the IC50 is 90 nM.

For `O=C(O)/C(Cc1ccccc1)=N/OC(c1ccc(OCc2ccc3ccccc3n2)cc1)C1CCCCC1` (stereo not given) [2-{Cyclohexyl-[4-(quinolin-2-ylmethoxy)-phenyl]-methoxyimino}-3-phenyl-propionic acid (H2O)], the IC50 was 35 nM.

Turning to `C/C(=N\OCC(c1ccc(OCc2ccc3ccccc3n2)cc1)C1CCCCC1)C(=O)O` (stereo not given) [2-{2-Cyclohexyl-2-[4-(quinolin-2-ylmethoxy)-phenyl]-ethoxyimino}-propionic acid], the IC50 was 20 nM.

For `O=C(O)/C=N/OC(c1ccc(OCc2nc3ccccc3s2)cc1Br)C1CCCCC1` (stereo not given) [{[4-(Benzothiazol-2-ylmethoxy)-2-bromo-phenyl]-cyclohexyl-methoxyimino}-acetic acid], the IC50 worked out at 22 nM.

As to `C/C(=N\OC(c1ccc(OCc2nc3cc(F)ccc3s2)cc1Cl)C1CCCCC1)C(=O)O` (stereo not given) [2-{[2-Chloro-4-(5-fluoro-benzothiazol-2-ylmethoxy)-phenyl]-cyclohexyl-methoxyimino}-propionic acid], the IC50 was 48 nM.

Take `C/C(=N\O[C@H](c1ccc(OCc2ccc3ccccc3n2)cc1)C1CCCCC1)C(=O)O`: the IC50 came out at 8 nM.

For the compound `CC(/C=C/C(=O)O)=N\OC(c1ccc(OCc2ccc3ccccc3n2)cc1)C1CCCCC1` (stereo not given) [4-{Cyclohexyl-[4-(quinolin-2-ylmethoxy)-phenyl]-methoxyimino}-pent-2-enoic acid (0.25H2O)], the IC50 was 40 nM.

Take `C/C(=N\OC(c1ccc(OCc2ccc3ccccc3n2)cc1Cl)C1CCCCC1)C(=O)O` (stereo not given) [2-{[2-Chloro-4-(quinolin-2-ylmethoxy)-phenyl]-cyclohexyl-methoxyimino}-propionic acid]: the IC50 was found to be 14 nM.

For the compound `CCCCC(O/N=C/C(=O)O)c1ccc(OCc2ccc3ccccc3n2)cc1` (stereo not given) [{1-[4-(Quinolin-2-ylmethoxy)-phenyl]-pentyloxyimino}-acetic acid], the IC50 was determined as 52 nM.

`C/C(=N\OC(Cc1ccccc1)c1ccc(OCc2ccc3ccccc3n2)cc1)C(=O)O` (stereo not given) [2-{2-Phenyl-1-[4-(quinolin-2-ylmethoxy)-phenyl]-ethoxyimino}-propionic acid (0.25H2O)]: the IC50 was found to be 30 nM.

Turning to `COc1cc(OCc2ccc3ccccc3n2)ccc1C(O/N=C/C(=O)O)C1CCCCC1` (stereo not given) [{Cyclohexyl-[2-methoxy-4-(quinolin-2-ylmethoxy)-phenyl]-methoxyimino}-acetic acid], the IC50 was 20 nM.

For `O=C(O)/C=N/OCC(c1ccc(OCc2ccc3ccccc3n2)cc1)C1CCCCC1` (stereo not given) [{2-Cyclohexyl-2-[4-(quinolin-2-ylmethoxy)-phenyl]-ethoxyimino}-acetic acid (0.25H2O)], the IC50 worked out at 47 nM.

Turning to `O=C(O)/C=N/OC(c1ccc(OCc2csc(-c3ccc(Cl)cc3)n2)cc1)C1CCCCC1` (stereo not given) [({4-[2-(4-Chloro-phenyl)-thiazol-4-ylmethoxy]-phenyl}-cyclohexyl-methoxyimino)-acetic acid], the IC50 stood at 490 nM.

For the origin of these results see BindingDB's records for doi:10.1021/jm9904102 (Abbott Laboratories, 2000).
